# Reference: patent US6588142B2, “Method of protecting plants from cold injury” (North Carolina State University, priority 2000, dated 2003)
# Assays:
# Sclerotinia blight = experiment: peanut field study, disease incidence; format: in vivo
# Source text: (§1) A peanut field was fumigated on April 28 with Metam sodium to control Cylindrocladium. The test plants were planted on May 22 with 16 different varieties of seed (Andru 93; Georgia Green; Tam Run 98; AT120; Southern Runner; Georgia Gold; Georgia Runner; 6K7WIDLEIL; FLA97R; FLAMDR98; FLA84x9B; NC7; VA93B; Perry; VA92R; VA98R), with a two-row planter. Temik and rhizobium were applied in furrow at standard rates. The spray date for the first treatment was July 20; the spray date for the second treatment was August 19. A tractor-mounted sprayer was used for all treatment sprays, with three hollow-cone nozzles per row at 40 psi, and 15 gal water/acre, at a height to cover the entire plant. Only the two treatment rows were sprayed. There were two unsprayed border rows between each treatment, to minimize interplot interference, and to assure even distribution of disease across plots. Herbicides, insecticides, and early leafspot control were applied according to standard practices across the field. Particular treatments were as follows:
# (§2) (2) 15.22 fl. oz. Omega 500™ fluazinam 500F/acre (per spray)
# (§3) (3) 30.44 fl. oz. Omega 500™ fluazinam 500F/acre (per spray)
# (§4) (4) 60.88 fl. oz. Omega 500™ fluazinam 500F/acre (per spray)
# (§5) (5) 32.0 fl. oz. Rovral™ brand iprodione+7.68 fl. oz. Nufilm™ adjuvant per acre (per spray)
# (§6) Data: Statistics were run using the SAS System using the General Linear Models Procedure.
# peanut [1] = experiment: peanut field study, frost injury rating; format: in vivo; conditions: for Frost Injury, Pr > |T|: frost 66 days after last spray
# Source text: as §1, §2, §3, §4, §5
# Frost occurred on October 25. Frost ratings were done on November 2d. Rating Index: 1<5% green leaves, 4>50% green leaves; values between 1 and 4 were scaled from 5 to 50%. Stems were not rated, and varied from completely brown, to black, to bright green. When rating percentage of green leaves in a plot, those obviously dead from disease were ignored, and the rating was based on the remaining leaves.
# as §6
# peanut [2] = experiment: peanut field study, yield per acre; format: in vivo
# Source text: as §1, §2, §3, §4, §5
# Peanuts were dug on November 10, and harvested on November 15. Moisture samples were taken from untreated plots of each variety. Yields were adjusted to 9% moisture.
# as §6
# [3] = pH 7; cited from earlier work
# [4] = treatment effect on various peanut cultivars
smiles,measurement,setting,value
O=[N+]([O-])c1cc(C(F)(F)F)c(Cl)c([N+](=O)[O-])c1Nc1ncc(C(F)(F)F)cc1Cl [fluazinam],"Disease Incidence, Pr > |T|",Sclerotinia blight; High Rate vs Control,0.0001
same,"Disease Incidence, Pr > |T|",Sclerotinia blight; High Rate vs Rovral,0.3911
same,disease control,Sclerotinia blight; High Rate vs Rovral,not significantly better
same,disease control,"Sclerotinia blight; high rate, vs Untreated Control",statistically significantly better disease control
same,Sclerotinia blight,Sclerotinia blight; [4],significantly reduced
same,"Frost Injury, Pr > |T|",peanut [1]; High Rate vs Control,0.0001
same,"Frost Injury, Pr > |T|",peanut [1]; High Rate vs Rovral,0.0001
same,frost protection,"peanut [1]; high rate, compared to both Untreated Control and Rovral",statistically significantly better frost protection
same,frost injury,peanut [1]; [4],significantly reduced
same,"Yield/Acre, Pr > |T|",peanut [2]; High Rate vs Control,0.0001
same,"Yield/Acre, Pr > |T|",peanut [2]; High Rate vs Rovral,0.0001
same,yields,"peanut [2]; high rate, vs both Untreated Control and Rovral",statistically significantly higher
same,yields,peanut [2]; treatment effect,significantly higher
same,water solubility,[3],0.071 ppm
